Legend:
atuA = atuA promoter-luxCDABE biosensor gene expression; type: cell-based; details: Pseudomonas OST1909
Experimental: Routine microbiology and gene expression assays using 96 well plates were performed to grow the biosensor strains in the presence of environmental water samples, and the light output from the biosensor was used as a proxy to indicate the concentration of naphthenic acids in the water.
In the fourth step, all plasmid-encoded genetic circuits were introduced back into Pseudomonas OST1909 for validation.
“SIGMA” and “Acros” indicate two sources of primarily acyclic NA mixtures. […] A post hoc Tukey HSD test was conducted with each compound and mixture to test significant relationships between each group (α=0.05, n=3).

atu operon = details: stated as known; cited from earlier work

| Structure (SMILES) | induction of the atu operon / atu genes (atuA) | induction of atu genes in Pseudomonas aeruginosa by acyclic terpenes (atu operon) |
| --- | --- | --- |
| CC(C)=CCCC(C)CC(=O)O (centres unmarked) [citronellic acid] | induce expression | – |
| CC(C)=CCCC(C)CCO (centres unmarked) [citronellol] | do not induce | induced |
| CC(C)=CCC/C(C)=C/CO [geraniol] | do not induce | induced |
